TGI and GI50 data for eleven compounds are collected here from PubChem BioAssay (NCI).

Several values for one entry are separate records, joined by “and”; a condition that tells them apart may be missing. Identical values can stand only once.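 Where inhibition never reached the appropriate level, the endpoint shown equals the highest concentration tested. Otherwise, values were interpolated linearly from a five-concentration, 48-hour dose response in 96-well plates. At the GI50, growth is halved. The concentration for full growth arrest is given as TGI.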 A value given as a limit tells only on which side of the number the result lay.

Test systems include A549 NSCLC; CAKI-1 renal; COLO 205 colon; HCC-2998 colon; HCT-15 colon; RXF 393 renal; UACC-62 melanoma; A498 renal; DU-145 prostate; MALME-3M melanoma.
Assay in all cases: NCI anticancer screen, dose series, 48 h

`CC(=O)O[C@H]1C(=O)[C@]2(C)[C@@H](OC(=O)OCC(O)CO)C[C@H]3OC[C@@]3(OC(C)=O)[C@H]2[C@H](OC(=O)c2ccccc2)[C@]2(O)C[C@H](OC(=O)[C@H](O)[C@@H](NC(=O)c3ccccc3)c3ccccc3)C(C)=C1C2(C)C` (stereo not given in full): the TGI in the assay on A549 NSCLC is above 100 µM; in the assay on CAKI-1 renal, above 68.8 µM; in the assay on COLO 205 colon, 0.683 µM; in the assay with HCC-2998 colon, below 0.01 µM; with HCT-15 colon, 10.9 µM; in the assay on RXF 393 renal it was 1.04 µM. This compound returned a TGI in the assay with UACC-62 melanoma of 21.2 µM.

On to `O=C(CCN1CCCC1)Nc1ccc2c(NCCCCc3ccccc3)c3ccccc3nc2c1`, for which the GI50 in the assay with A498 renal is 1.43 µM; with CAKI-1 renal, 9.49 µM; in the assay on COLO 205 colon, 0.453 µM; in the assay with DU-145 prostate it was 1.15 µM; in the assay on HCC-2998 colon, 0.815 µM; in the assay with HCT-15 colon, 1.62 µM. Moreover, the GI50 was 1.72 µM in the assay on MALME-3M melanoma, 0.802 µM with RXF 393 renal and 1.67 µM with UACC-62 melanoma. Further, the TGI in the assay with A498 renal stood at 2.82 µM; with CAKI-1 renal, 22.3 µM; in the assay with COLO 205 colon, 1.87 µM; with DU-145 prostate, 2.39 µM; with HCC-2998 colon it was 2.14 µM; in the assay with HCT-15 colon it was 3.1 µM. Also, the TGI with MALME-3M melanoma came to 3.26 µM; with RXF 393 renal it was 2.18 µM; with UACC-62 melanoma, 3.12 µM.

As to `N#Cc1ccc(Nc2nc3nc[nH]c3c(=O)[nH]2)cc1`, the TGI in the assay on A498 renal, in the assay with A549 NSCLC, in the assay on CAKI-1 renal, in the assay on COLO 205 colon, in the assay on DU-145 prostate and with HCC-2998 colon was above 100 µM in each case. The TGI with HCT-15 colon, in the assay on MALME-3M melanoma and in the assay on UACC-62 melanoma was above 100 µM each time.

For the compound `CC(=O)OC1CC2(O)C(CCC3(C)C(c4ccc(=O)oc4)CCC32O)C2(C)CCC(O)C=C12` (stereo not given), the TGI is 0.31 µM and 0.176 µM with A498 renal; 0.0272 µM with A549 NSCLC; 0.124 µM and 0.0425 µM with CAKI-1 renal; 0.168 µM and 0.139 µM in the assay with COLO 205 colon; 0.357 µM and 0.195 µM in the assay on HCC-2998 colon; 0.209 µM and 0.147 µM in the assay on HCT-15 colon. For the same compound, the TGI with MALME-3M melanoma is 0.0469 µM; with RXF 393 renal, 0.027 µM and 0.0399 µM; in the assay on UACC-62 melanoma, 0.0827 µM and 0.0478 µM. Moreover, the GI50 in the assay with A549 NSCLC is 0.00624 µM; in the assay with CAKI-1 renal, 0.015 µM; in the assay with HCC-2998 colon, 0.0437 µM; in the assay on HCT-15 colon, 0.0375 µM; with MALME-3M melanoma, 0.0112 µM; in the assay on RXF 393 renal, 0.00624 µM. Further, the GI50 in the assay with UACC-62 melanoma was 0.0375 µM.

Take `CC(C)(C)CC(C)(C)Cc1ccc(OCCOCC[N+](C)(C)Cc2ccccc2)cc1`: the GI50 in the assay on A498 renal was 2.08 µM; in the assay with A549 NSCLC, 5.06 µM; in the assay with CAKI-1 renal, 3.47 µM; in the assay on DU-145 prostate it was 3.68 µM; in the assay with HCC-2998 colon, 1.58 µM; in the assay with HCT-15 colon, 14.4 µM. Also, the GI50 with RXF 393 renal was 1.42 µM; in the assay on UACC-62 melanoma, 1.26 µM. Moreover, the TGI with A498 renal worked out at 9.38 µM; in the assay with A549 NSCLC, 19.7 µM; in the assay on CAKI-1 renal, 13.8 µM; in the assay on DU-145 prostate, 13.8 µM; in the assay on HCC-2998 colon, 3.02 µM; with HCT-15 colon, 33.5 µM. Also, the TGI in the assay with RXF 393 renal came out at 3 µM; in the assay with UACC-62 melanoma it was 2.54 µM.

With `COc1cc2c(cc1-c1c(C)noc1C)ncc1nc(C3CCCCC3)n(C3CCC(OC(F)F)CC3)c12` (stereo not given), the GI50 with A549 NSCLC was 2.89 µM; in the assay with CAKI-1 renal it was 1.03 µM; with DU-145 prostate, 3.52 µM; in the assay with RXF 393 renal it was 1.33 µM. In addition, the TGI was above 100 µM in the assay on A549 NSCLC, above 100 µM with CAKI-1 renal, above 100 µM in the assay on DU-145 prostate and 3.99 µM in the assay on RXF 393 renal.

Consider `COc1cc(-c2ccc(-c3ccc(C(=N)N)s3)s2)cc(OC)c1OC`, for which the GI50 was 2.25 µM in the assay on A498 renal; 1.7 µM with CAKI-1 renal; 2.32 µM in the assay on DU-145 prostate; 1.76 µM in the assay on HCC-2998 colon; 1.91 µM in the assay with HCT-15 colon; 1.74 µM in the assay on MALME-3M melanoma. Also, the GI50 in the assay with RXF 393 renal is 1.66 µM; in the assay on UACC-62 melanoma, 1.7 µM. Further, the TGI came out at 5.83 µM with A498 renal; 3.28 µM in the assay on CAKI-1 renal; 5.83 µM in the assay with DU-145 prostate; 3.24 µM with HCC-2998 colon; 4.51 µM in the assay on HCT-15 colon; 3.53 µM in the assay on MALME-3M melanoma. Moreover, the TGI was 3.39 µM with RXF 393 renal and 3.17 µM in the assay with UACC-62 melanoma.

Turning to `COc1cccc2c1C(=O)c1c(O)c3c(c(O)c1C2=O)C[C@@](O)(C(C)=O)C[C@@H]3OC1CC(N)C(O)C(C)O1` (stereo not given in full), the GI50 in the assay with A549 NSCLC was 0.0153 µM; in the assay with RXF 393 renal it was 0.0602 µM; in the assay with UACC-62 melanoma, below 0.0166 µM. Further, the TGI was 1.28 µM [middle of 6 runs] in the assay on COLO 205 colon and 8.07 µM [middle of 6 runs] with HCT-15 colon.

Take `Cc1c2cc[n+](C)cc2c(COC2OC(CO)C(O)C2O)c2c3ccccc3n(C)c12` (stereo not given): the TGI with A498 renal, in the assay on A549 NSCLC, in the assay on CAKI-1 renal, in the assay with COLO 205 colon, with HCC-2998 colon and in the assay on HCT-15 colon was above 100 µM each time. The values for the TGI in the assay with MALME-3M melanoma, in the assay on RXF 393 renal and in the assay with UACC-62 melanoma were 98.4 µM, above 100 µM and above 100 µM, respectively.

With `Cc1c2cc[n+](C)cc2c(C)c2c1[nH]c1ccc(O)cc12`, the TGI was 99.4 µM in the assay with A498 renal; 99.3 µM in the assay on A549 NSCLC; above 100 µM with CAKI-1 renal; above 91.9 µM in the assay with COLO 205 colon; 74.7 µM with DU-145 prostate; 98.7 µM in the assay on HCC-2998 colon. The TGI in the assay with HCT-15 colon was above 100 µM; in the assay with MALME-3M melanoma, 26.4 µM; with RXF 393 renal, above 100 µM; in the assay on UACC-62 melanoma, 82.1 µM.

Take `CCP(=O)(CC)C(Cl)(Cl)C(=O)NC`: the TGI in the assay on A549 NSCLC, in the assay with CAKI-1 renal, in the assay with COLO 205 colon, in the assay on DU-145 prostate, in the assay with HCC-2998 colon and with HCT-15 colon was above 100 µM throughout.
